Test results from PubChem BioAssay (NCI).
Values joined by “and” are separate entries in the source; they are usually repeats but may differ in a detail not shown here. Identical values can stand only once.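 Cultured in 96-well plates, cells were exposed to test compound for 48 hours across five concentrations. GI50 marks 50% less growth. TGI marks complete inhibition of growth.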

Columns and labels:
Test in all cases: DTP human tumour cell line panel, 48 h
SF-539 CNS = test system: SF-539 CNS
IGROV1 ovarian = test system: IGROV1 ovarian
NCI-H23 lung = test system: NCI-H23 lung
UACC-62 melanoma = test system: UACC-62 melanoma
M14 melanoma = test system: M14 melanoma
HL-60(TB) leukemia = test system: HL-60(TB) leukemia
NCI-H522 lung = test system: NCI-H522 lung
HCT-116 colon = test system: HCT-116 colon
SK-MEL-28 melanoma = test system: SK-MEL-28 melanoma
RXF 393 renal = test system: RXF 393 renal

Structure (SMILES)	GI50 (SF-539 CNS) [nM]	TGI (SF-539 CNS) [µM]	GI50 (IGROV1 ovarian) [µM]	TGI (IGROV1 ovarian)	GI50 (NCI-H23 lung) [µM]	TGI (NCI-H23 lung)	GI50 (UACC-62 melanoma) [µM]	TGI (UACC-62 melanoma)	GI50 (M14 melanoma) [µM]	TGI (M14 melanoma)	GI50 (HL-60(TB) leukemia) [nM]	TGI (HL-60(TB) leukemia)	GI50 (NCI-H522 lung) [µM]	TGI (NCI-H522 lung)	GI50 (HCT-116 colon) [µM]	TGI (HCT-116 colon)	GI50 (SK-MEL-28 melanoma) [µM]	TGI (SK-MEL-28 melanoma) [µM]	GI50 (RXF 393 renal) [nM]	TGI (RXF 393 renal)
[Cl-].[Gd+3].[O-]/N=C(\c1ccccc1)c1ccccn1.[O-]/N=C(\c1ccccc1)c1ccccn1.[O-]/N=C(\c1ccccc1)c1ccccn1	> 100000	> 100	81.4	> 100 µM	> 100	> 100 µM	40.7	> 100 µM	51.4	> 100 µM	11700	> 100 µM	40.4	> 100 µM	49.3	> 100 µM	61.6	> 100		
O=C(c1ccccc1)C(Br)C(Br)c1ccccc1 (configuration not stated)	10700	22.6	2.94	12.2 µM	10.4	23.8 µM	11.8	24.2 µM	2.01	4.12 µM			1.18	2.62 µM	1.73	3.32 µM	3.59	13	1890	3.51 µM
N/C(=N\C(N)=N\c1nc2ccccc2s1)c1cnccn1	2070	4.12			3	24.8 µM	1.74	3.52 µM	3.21	> 100 µM	2680	51.5 µM	2.16	6.16 µM			2.3	6.06	1930	3.96 µM
O=C(Nc1ccc(C(F)(F)F)cc1[N+](=O)[O-])c1cccnc1		25.5		> 100 µM		> 100 µM		90.8 µM		> 100 µM		> 100 µM		36.1 µM		> 100 µM		> 100		
NC(=O)c1ncn(C2OC(CO)C(O)C2O)c1N (configuration not stated)	> 100000	> 100	> 100	> 100 µM	> 100	> 100 µM	> 100	> 100 µM	> 100	> 100 µM			> 100	> 100 µM	> 100	> 100 µM	> 100	> 100	> 100000	> 100 µM
c1cncc(C2ONC3=NCCN32)c1 (configuration not stated)	28900	> 100	24	> 100 µM	54	> 100 µM	46.7	> 100 µM	64.3	> 100 µM			9.59	> 100 µM	34.6	> 100 µM	> 100	> 100	20900	96.3 µM
O=C(OC[C@@H]1CO1)c1cccc2c(=O)c3ccccc3[nH]c12	344	1.97	0.329	1.83 µM	0.288	1.25 µM	0.229	0.56 µM	0.344	1.65 µM			0.421	2.2 µM	0.127	10.1 µM	0.396	2.07	207	0.515 µM
COc1cc2cc3c(c(O)c2c(O)c1-c1c(OC)cc2cc4c(c(O)c2c1O)C(=O)O[C@H](C)C4)C(=O)O[C@H](C)C3					32.1	> 100 µM	17.1	32.5 µM	25.7	57 µM	95900	> 100 µM	44.3	> 100 µM	20.3	43 µM	33	99.1	24400	> 100 µM
C=C(Cl)[C@@](Cl)(CBr)CC[C@@H](Br)C(C)(C)Cl	28.2	0.325	14.7	32.2 µM and 32.6 µM	13.4	30.2 µM and 29.1 µM	4.53	24.5 µM and 3.84 µM		40.9 µM and 28.8 µM	68.6	> 100 µM and 10.5 µM		34.5 µM and 43.5 µM		1.25 µM and 0.635 µM			346	2.37 µM and 0.488 µM
O=c1[nH]c2ccc([N+](=O)[O-])c(Cl)c2c2ccccc12		4.64		28.9 µM		24.7 µM		15.5 µM		> 100 µM		16.6 µM		11.7 µM		> 100 µM		25.8		
CCOc1ccc(Nc2nc(-c3c(C)nc4ncccn34)cs2)cc1	22.7	0.0822	0.0797	26.2 µM	0.0623	22.2 µM	< 0.01	12.8 µM	0.017	13.6 µM	21.6	0.0706 µM	< 0.01	1.57 µM	0.0221	11.6 µM	0.0673	20.7		
O=C(Oc1ccc2c(c1)CN(Cc1ccccc1)CO2)c1ccccc1		32.3		27 µM		30 µM		30.5 µM		32 µM				22.3 µM		30.6 µM		41.2		30.4 µM
C=C1CC/C=C(\C)CC[C@H](C(=C)C)[C@@H](O)/C=C(/CO)CCC1O (some centres not stated)	> 100000	> 100	44.9	> 100 µM	80.6	> 100 µM	57.3	> 100 µM	71.7	> 100 µM			60.7	> 100 µM	35.4	> 100 µM	> 100	> 100	89900	> 100 µM
O=C1CNN=C(Cn2nc(-c3ccccc3)c3ccccc3c2=O)N1		> 100		> 100 µM		> 100 µM		> 100 µM		> 100 µM		> 100 µM		> 100 µM		> 100 µM		> 100		
N#CC(NC(=O)CCl)=C(Cl)Cl	1840	3.53	1.18	2.92 µM	1.7	3.56 µM	1.34	2.69 µM	1.34	2.87 µM			0.437	1.83 µM	1.02	3.7 µM	1.56	3.03	1270	2.64 µM
